This is an account of results in ChEMBL document CHEMBL4138093, “Discovery and characterization of selective human sphingomyelin synthase 2 inhibitors” (Eur J Med Chem, 2017).

Series [1] addresses T1, Phosphatidylcholine:ceramide cholinephosphotransferase 1 (Homo sapiens, UniProt Q86VZ5).
T1 sequence (Q86VZ5 whole entry): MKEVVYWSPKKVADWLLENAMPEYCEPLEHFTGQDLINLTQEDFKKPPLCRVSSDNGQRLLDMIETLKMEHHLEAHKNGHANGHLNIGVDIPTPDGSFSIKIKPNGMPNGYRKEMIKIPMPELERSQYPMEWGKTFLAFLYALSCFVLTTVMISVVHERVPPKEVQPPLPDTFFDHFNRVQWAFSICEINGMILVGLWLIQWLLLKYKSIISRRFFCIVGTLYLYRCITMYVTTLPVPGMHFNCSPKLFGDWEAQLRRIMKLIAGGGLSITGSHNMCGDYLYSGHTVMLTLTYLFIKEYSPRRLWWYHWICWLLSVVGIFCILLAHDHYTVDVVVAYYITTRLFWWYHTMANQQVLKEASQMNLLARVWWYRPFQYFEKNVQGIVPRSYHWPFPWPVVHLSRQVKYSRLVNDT
As to the kind of experiment: Inhibition of human SMS1.

The subject of another series is HEK-293T. Nature of the series: Cytotoxicity against HEK293T cells by CellTiter-Glo luminescent cell viability assay relative to control. Format: cell-based. As to conditions: human.
The target in series [2] is T2, Phosphatidylcholine:ceramide cholinephosphotransferase 2 (Homo sapiens, UniProt Q8NHU3).
T2 sequence (Q8NHU3 whole entry): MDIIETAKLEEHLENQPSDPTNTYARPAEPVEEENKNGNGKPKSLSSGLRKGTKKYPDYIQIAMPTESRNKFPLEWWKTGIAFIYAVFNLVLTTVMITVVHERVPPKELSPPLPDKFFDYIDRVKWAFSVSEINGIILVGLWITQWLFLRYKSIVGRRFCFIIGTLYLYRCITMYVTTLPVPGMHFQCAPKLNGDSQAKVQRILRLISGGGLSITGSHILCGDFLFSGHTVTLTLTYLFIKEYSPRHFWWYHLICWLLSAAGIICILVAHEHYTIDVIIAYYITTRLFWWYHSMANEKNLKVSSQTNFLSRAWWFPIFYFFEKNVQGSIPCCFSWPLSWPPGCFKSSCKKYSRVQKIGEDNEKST
Nature of the series: Inhibition of full length C-terminal FLAG tagged human SMS2 expressed in HEK293 cell membranes using DMPC-d72 and C17-ceramide as substrate preincubated for 60 mins followed by substrate addition measured after 30 mins by RapidFire/mass spectrometry assay.

Another series is filed under the species Homo sapiens. As to the kind of experiment: Selectivity index, ratio of IC50 for full length C-terminal FLAG tagged human SMS1 to IC50 for full length C-terminal FLAG tagged human SMS2.
In series [3] the target is T1, Phosphatidylcholine:ceramide cholinephosphotransferase 1. Nature of the series: Inhibition of full length C-terminal FLAG tagged human SMS1 expressed in HEK293 cell membranes using DMPC-d72 and C17-ceramide as substrate preincubated for 60 mins followed by substrate addition measured after 30 mins by RapidFire/mass spectrometry assay.

For the molecule `CN(Cc1cc(C(F)(F)F)cc(C(F)(F)F)c1)C(=O)c1c(N2CCCC2)c2ccccc2n(C)c1=O`, the IC50 (usually the concentration needed to halve the response being measured) in series [1] was over 100 µM. The Activity with HEK-293T is reported as over 50%.

`S=C(S)OC1CC2CC1C1CCCC21` (stereo not given): the IC50 in series [2] came to 56 µM; in series [3], 86 µM. For the same molecule, in the series listed under Homo sapiens, the Ratio IC50 stood at 1.5.
